Patent publication US20240279205A1, “NOVEL BENZIMIDAZOLE DERIVATIVE” (Carna Biosciences, Inc., priority 2020, published 2024)
Counter-ions that a name gives are not always drawn.

Biological target: T1, human STING (hSTING) (Homo sapiens, UniProt Q86WV6)
T1 construct: host or cells: HEK-Blue ISG cells (HEK293-derived SEAP reporter line)
Test: Inhibition test of intracellular human STING (hSTING) pathway using SEAP reporter cells (HEK-Blue ISG), stimulation with Compound 3
Type: cell-based
Parameters: hSTING inhibitory activity: scale not given here
Conditions: Compound 3 10 nM stimulation, 21 hours; for IC50: read-out: hSTING inhibitory activity
Description: Inhibition test of intracellular human STING (hSTING) pathway using reporter cells
Since STING activates the transcription factor IRF3 upon ligand stimulation, the activity of STING can be evaluated by a reporter assay using a secretory alkaline phosphatase (SEAP reporter) integrated downstream of an IRF-inducible promoter.
That is, the hSTING inhibitory activity of the test compound was evaluated using HEK-Blue™MISG cells (manufactured by Invivogen, #hkb-isg-1) incorporating a SEAP reporter. Activation of hSTING was performed by stimulation with the small molecule ligand Compound 3 as described in the literature (Ramanjulu, J. M., et al., Nature. 2018, 564 (7736), 439-443). HEK-Blue™MISG cells were seeded in a 96-well plate and cultured overnight at 37° C. in a 5% CO2 incubator. To each well of this cell culture plate, a test compound solution adjusted to a final concentration of 0.1 to 10 µM of the test compound was added, cultured for 1 hour in a CO2 incubator, and then Compound 3 (final concentration 10 nM) was added and further cultured in a CO2 incubator for 21 hours. After collecting the culture supernatant of each well, the reporter activity was measured by color development reaction with alkaline phosphatase.
The reporter activity of the test compound non-addition and Compound 3 addition group was set to 100%, and the reporter activity of the test compound non-addition and Compound 3 non-addition group was set to 0%. The IC50 value was determined by regression analysis of the inhibitory rate determined from the reporter activity at each compound concentration and the test compound concentration (logarithm).

T1 sequence (Q86WV6 whole entry H232R): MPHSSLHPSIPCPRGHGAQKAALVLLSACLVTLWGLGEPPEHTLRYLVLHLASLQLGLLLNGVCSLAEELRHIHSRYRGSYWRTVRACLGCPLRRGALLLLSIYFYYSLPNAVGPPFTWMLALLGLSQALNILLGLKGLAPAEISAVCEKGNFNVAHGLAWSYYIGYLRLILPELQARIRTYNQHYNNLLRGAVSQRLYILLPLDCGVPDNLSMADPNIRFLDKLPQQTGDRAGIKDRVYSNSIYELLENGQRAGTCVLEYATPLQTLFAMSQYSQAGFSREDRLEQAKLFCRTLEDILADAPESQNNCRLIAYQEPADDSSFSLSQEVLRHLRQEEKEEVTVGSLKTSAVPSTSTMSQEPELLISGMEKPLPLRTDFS

| hSTING inhibitory activity | IC50 [µM] | Structure (SMILES) |
| --- | --- | --- |
| – | ≥ 10 | COCCn1c(Nc2c[nH]c3ccc(Cl)nc23)nc2cc(F)cc(F)c21 [Embodiment 205, N-(5-chloro-1H-pyrrolo[3,2-b]pyridin-3-yl)-5,7-difluoro-1-(2-methoxyethyl)-1H-benzo[d]imidazole-2-amine] |
| – | ≥ 10 | COCCn1c(Nc2c[nH]c3ccc(Cl)nc23)nc2cc(Oc3cccnc3)ccc21 [Embodiment 206, N-(5-chloro-1H-pyrrolo[3,2-b]pyridin-3-yl)-1-(2-methylxhetyl)-5-(pyridin-3-yloxy)-1H-benzo[d] imidazol-2-amine] |
| – | ≥ 10 | COCCn1c(Nc2c[nH]c3ccc(Cl)nc23)nc2ccc(-c3ccccc3)cc21 [Embodiment 182] |
| – | ≥ 10 | Cn1c(Nc2c[nH]c3ccc(Br)nc23)nc2ccc(C(F)(F)F)cc21 [Embodiment 42, N-(5-bromo-1H-pyrrolo[3,2-b]pyridin-3-yl)-1-methyl-6-(trifluoromethyl)-1H-benzo[d]imidazol-2-amine] |
| * * | – | Clc1ccc2[nH]cc(Nc3nc4cc(-c5ccncc5)ccc4[nH]3)c2n1 [Embodiment 96, N-(5-Chloro-1H-pyrrolo[3,2-b]pyridin-3-yl)-5-(pyridin-4-yl)-1H-benzo[d]imidazol-2-amine] |
| – | ≥ 10 | COCCn1c(Nc2c[nH]c3ccc(Cl)nc23)nc2c(C(F)(F)F)cccc21 [Embodiment 167, N-(5-Chloro-1H-pyrrolo[3,2-b]pyridin-3-yl)-1-(2-methoxyethyl)-4-(trifluoromethyl)-1H-benzo[d] imidazole-2-amine] |
| * * | – | Cn1c(Nc2c[nH]c3ccc(Cl)nc23)nc2cc(F)c(Oc3ccccc3)cc21 [Embodiment 194, N-(5-Chloro-1H-pyrrolo[3,2-b]pyridin-3-yl)-5-fluoro-1-methyl-6-phenoxy-1H-benzo[d]imidazol-2-amine] |
| – | ≥ 10 | COCCn1c(Nc2c[nH]c3ccc(Cl)nc23)nc2cccc(C(F)(F)F)c21 [Embodiment 180, N-(5-chloro-1H-pyrrolo[3,2-b]pyridin-3-yl)-1-(2-methoxyethyl)-7-(trifluoromethyl)-1H-benzo[d]imidazol-2-amine] |
| – | ≥ 10 | Cn1c(Nc2c[nH]c3ccc(Cl)nc23)nc2ccc(C3CCOCC3)cc21 [Embodiment 154, N-(5-chloro-1H-pyrrolo[3,2-b]pyridin-3-yl)-1-methyl-6-(tetrahydro-2H-pyran-4-yl)-1H-benzo[d] imidazol-2-amine] |
| – | ≥ 10 | COc1ccc2nc(Nc3c[nH]c4ccc(Cl)nc34)n(C)c2c1 [Embodiment 161, N-(5-Chloro-1H-pyrrolo[3,2-b]pyridin-3-yl)-6-methoxy-1-methyl-1H-benzo[d]imidazol-2-amine] |
| – | ≥ 10 | CN(C)CC#Cc1ccc2[nH]c(Nc3c[nH]c4ccc(Cl)nc34)nc2c1 [Embodiment 146, N-(5-Chloro-1H-pyrrolo[3,2-b]pyridin-3-yl)-5-[3-(dimethylamino)prop-1-yn-1-yl]-1H-benzo[d] Imidazol-2-amine] |
| – | 1 to 10 | CCCCn1c(Nc2c[nH]c3ccc(Br)nc23)nc2cc(Oc3ccccc3)ccc21 [Embodiment 90, N-(5-bromo-1H-pyrrolo[3,2-b]pyridin-3-yl)-1-butyl-5-phenoxy-1H-benzo[d]imidazol-2-amine] |
| – | 1 to 10 | CC(C)Oc1ccc2nc(Nc3c[nH]c4ccc(Cl)nc34)n(C)c2c1 [Embodiment 209, N-(5-Chloro-1H-pyrrolo[3,2-b]pyridin-3-yl)-6-isopropoxy-1-methyl-1H-benzo[d]imidazol-2-amine] |
| – | ≥ 10 | COCCOc1ccc2[nH]c(Nc3c[nH]c4ccc(Cl)nc34)nc2c1 [Embodiment 140, N-(5-Chloro-1H-pyrrolo[3,2-b]pyridin-3-yl)-5-(2-methoxyethoxy)-1H-benzo[d]imidazol-2-amine] |
| – | ≥ 10 | COCCn1c(Nc2c[nH]c3ccc(Cl)nc23)nc2ccc(C(F)(F)F)cc21 [Embodiment 179, N-(5-chloro-1H-pyrrolo[3,2-b]pyridin-3-yl)-1-(2-methoxyethyl)-6-(trifluoromethyl)-1H-benzo[d]imidazol-2-amine] |
| * * | – | Cn1nccc1Oc1ccc2[nH]c(Nc3c[nH]c4ccc(Br)nc34)nc2c1 [Embodiment 63, N-(5-bromo-1H-pyrrolo[3,2-b]pyridin-3-yl)-5-[(1-methyl-1H-pyrazol-5-yl)oxy]-1H-benzo[d] imidazol-2-amine] |
| – | 1 to 10 | Cc1c(F)ccc2[nH]c(Nc3c[nH]c4ccc(Cl)nc34)nc12 [Embodiment 176, N-(5-Chloro-1H-pyrrolo[3,2-b]pyridin-3-yl)-5-fluoro-4-methyl-1H-benzo[d]imidazol-2-amine formate] |
| – | 1 to 10 | Cn1c(Nc2c[nH]c3ccc(Cl)nc23)nc2cc(Cl)ccc21 [Embodiment 172, 5-Chloro-N-(5-chloro-1H-pyrrolo [3,2-b]pyridin-3-yl)-1-methyl-1H-benzo[d]imidazol-2-amine] |

Further lines, the compound ahead of its results:

| Structure (SMILES) | hSTING inhibitory activity | IC50 [µM] |
| --- | --- | --- |
| Brc1ccc2[nH]cc(Nc3nc4cc(Oc5cccnc5)ccc4[nH]3)c2c1 [Example 13, N-(5-bromo-1H-indol-3-yl)-5-(pyridin-3-yloxy)-1H-benzo[d]imidazol-2-amine] | * * | – |
| CC(C)(O)Cn1c(Nc2c[nH]c3ccc(Cl)cc23)nc2cc(C(F)(F)F)ccc21 [Embodiment 234, 1-{2-[(5-chloro-1H-indol-3-yl)amino]-5-(trifluoromethyl)-1H-benzo [d]imidazol-1-yl}-2-methylpropane-2-oar] | – | 1 to 10 |
| Cn1cc(-c2ccnc3c(Nc4nc5cc(Oc6ccccc6)ccc5[nH]4)c[nH]c23)cn1 [Embodiment 71, N-[7-(1-methyl-1H-pyrazol-4-yl)-1H-pyrrolo[3,2-b]pyridin-3-yl]-5-phenoxy-1H-benzo[d]imidazole-2-amine formate] | * * | – |
| Brc1cccc2[nH]cc(Nc3nc4ccccc4[nH]3)c12 [Example 9, N-(4-bromo-1H-indol-3-yl)-1H-benzo[d]imidazol-2-amine] | – | ≥ 10 |
| O=S(=O)(c1ccccc1)c1ccc2[nH]c(Nc3c[nH]c4ccc(Br)cc34)nc2c1 [Example 23, N-(5-bromo-1H-indol-3-yl)-5-(phenylsulfonyl)-1H-benzo[d]imidazol-2-amine] | * * | – |
| Brc1cc2c(Nc3nc4cc(Oc5ccccc5)ccc4[nH]3)c[nH]c2cn1 [Example 11, N-(5-bromo-1H-pyrrolo[2,3-c]pyridin-3-yl)-5-phenoxy-1H-benzo[d]imidazol-2-amine] | – | 1 to 10 |
| CN(C)C(=O)c1cccc2c(Nc3nc4cc(Oc5ccccc5)ccc4[nH]3)c[nH]c12 [Embodiment 122, N,N-dimethyl-3-[(5-phenoxy-1H-benzo[d]imidazol-2-yl)amino]-1H-indole-7-carboxamide formate] | – | 1 to 10 |
| CS(=O)(=O)c1ccccc1Oc1ccc2[nH]c(Nc3c[nH]c4ccc(Br)nc34)nc2c1 [Embodiment 68, N-(5-bromo-1H-pyrrolo[3,2-b]pyridin-3-yl)-5-[2-(methylsulfonyl)phenoxy]-1H-benzo[d]imidazol-2-amine] | – | ≥ 10 |
| c1ccc(Oc2ccc3[nH]c(Nc4c[nH]c5c(-c6ccncc6)ccnc45)nc3c2)cc1 [Embodiment 163, 5-phenoxy-N-[7-(pyridin-4-yl)-1H-pyrrolo[3,2-b]pyridin-3-yl]-1H-benzo[d]imidazol-2-amine] | – | ≥ 10 |
| C[C@@H](O)Cn1c(Nc2c[nH]c3ccc(Cl)cc23)nc2cc(C(F)(F)F)ccc21 [Embodiment 239, (R)-1-{2-[(5-chloro-1H-indol-3-yl)amino]-5-(trifluoromethyl)-1H-benzo[d]imidazol-1-yl}propan-2-oar] | * * | – |
| C1=C(c2ccc3[nH]cc(Nc4nc5cc(Oc6ccccc6)ccc5[nH]4)c3n2)CCCC1 [Embodiment 48, N-[5-(Cyclohex-1-en-1-yl)-1H-pyrrolo[3,2-b]pyridin-3-yl]-5-phenoxy-1H-benzo[d]imidazol-2-a mine] | – | 1 to 10 |
| Cn1cnc(-n2c(Nc3c[nH]c4ccc(Cl)cc34)nc3cc(C(F)(F)F)ccc32)c1 [Embodiment 227, N-(5-Chloro-1H-indol-3-yl)-1-(1-methyl-1H-imidazol-4-yl)-5-(trifluoromethyl)-1H-benzo[d] imidazole-2-amine] | – | ≥ 10 |
| COC(=O)c1ccc2[nH]c(Nc3c[nH]c4ccc(Br)nc34)nc2c1 [Embodiment 34, methyl 2-[(5-bromo-1H-pyrrolo[3,2-b]pyridin-3-yl)amino]-1H-benzo[d]imidazole-5-carboxylate] | * * | – |
| CNn1c(Nc2c[nH]c3cc(F)c(F)cc23)nc2cc(C(F)(F)F)cc(F)c21 [Embodiment 273, N2-(5,6-difluoro-1H-indol-3-yl)-7-fluoro-N1-methyl-5-(trifluoromethyl)-1H-benzo[d]imidazole-1,2-diamine] | * * * | – |
| c1ccc(Oc2ccc3[nH]c(Nc4c[nH]c5cc(-c6ccccc6)cnc45)nc3c2)cc1 [Embodiment 51, 5-phenoxy-N-(6-phenyl-1H-pyrrolo[3,2-b]pyridin-3-yl)-1H-benzo[d]imidazol-2-amine] | * * | – |
